Legend:
Experiment in all cases: relative viability (nuclei count vs DMSO), 5 days (fraction); higher = more cells survive
AZD5582 + Lapatinib = compound: C[C@@H](C(=O)N[C@@H](C1CCCCC1)C(=O)N2CCC[C@H]2C(=O)N[C@@H]3[C@@H](CC4=CC=CC=C34)OCC#CC#CCO[C@@H]5CC6=CC=CC=C6[C@@H]5NC(=O)[C@@H]7CCCN7C(=O)[C@H](C8CCCCC8)NC(=O)[C@H](C)NC)NC [AZD5582] + CS(=O)(=O)CCNCc1ccc(-c2ccc3ncnc(Nc4ccc(OCc5cccc(F)c5)c(Cl)c4)c3c2)o1 [Lapatinib] (partner 2 µM)
Summary of the method: (§1)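 For relative viability, nuclei counts in treated wells were divided by those in vehicle wells. Lung cancer cell lines had been pin-tool dosed in 1536-well plates the day after seeding and cultured for 5 days, then fixed and stained in one step (final 0.05% Triton X-100, 1% formaldehyde, 1 ug/ml Hoechst) and imaged at 4×. Doses were one drug alone or a fixed anchor-drug dose plus five library-drug doses (not always all listed) in √10 steps, and values are duplicate-plate medians.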

AZD5582 + Olaparib = compound: C[C@@H](C(=O)N[C@@H](C1CCCCC1)C(=O)N2CCC[C@H]2C(=O)N[C@@H]3[C@@H](CC4=CC=CC=C34)OCC#CC#CCO[C@@H]5CC6=CC=CC=C6[C@@H]5NC(=O)[C@@H]7CCCN7C(=O)[C@H](C8CCCCC8)NC(=O)[C@H](C)NC)NC [AZD5582] + O=C(c1cc(Cc2n[nH]c(=O)c3ccccc23)ccc1F)N1CCN(C(=O)C2CC2)CC1 [Olaparib] (partner 8 µM)
Summary of the method: as §1

AZD5582 + Bortezomib = compound: C[C@@H](C(=O)N[C@@H](C1CCCCC1)C(=O)N2CCC[C@H]2C(=O)N[C@@H]3[C@@H](CC4=CC=CC=C34)OCC#CC#CCO[C@@H]5CC6=CC=CC=C6[C@@H]5NC(=O)[C@@H]7CCCN7C(=O)[C@H](C8CCCCC8)NC(=O)[C@H](C)NC)NC [AZD5582] + CC(C)C[C@H](NC(=O)[C@H](Cc1ccccc1)NC(=O)c1cnccn1)B(O)O [Bortezomib] (partner 0.002 µM)
Summary of the method: as §1

AZD5582 + Tozasertib = compound: C[C@@H](C(=O)N[C@@H](C1CCCCC1)C(=O)N2CCC[C@H]2C(=O)N[C@@H]3[C@@H](CC4=CC=CC=C34)OCC#CC#CCO[C@@H]5CC6=CC=CC=C6[C@@H]5NC(=O)[C@@H]7CCCN7C(=O)[C@H](C8CCCCC8)NC(=O)[C@H](C)NC)NC [AZD5582] + Cc1cc(Nc2cc(N3CCN(C)CC3)nc(Sc3ccc(NC(=O)C4CC4)cc3)n2)n[nH]1 [Tozasertib] (partner 0.1 µM)
Summary of the method: as §1

AZD5582 + Linsitinib = compound: C[C@@H](C(=O)N[C@@H](C1CCCCC1)C(=O)N2CCC[C@H]2C(=O)N[C@@H]3[C@@H](CC4=CC=CC=C34)OCC#CC#CCO[C@@H]5CC6=CC=CC=C6[C@@H]5NC(=O)[C@@H]7CCCN7C(=O)[C@H](C8CCCCC8)NC(=O)[C@H](C)NC)NC [AZD5582] + C[C@]1(O)C[C@@H](c2nc(-c3ccc4ccc(-c5ccccc5)nc4c3)c3c(N)nccn32)C1 [Linsitinib] (partner 1 µM)
Summary of the method: as §1

Cell Line	relative viability (AZD5582 + Lapatinib; first compound 0.001581 µM)	relative viability (AZD5582 + Lapatinib; first compound 0.005 µM)	relative viability (AZD5582 + Lapatinib; first compound 0.01581 µM)	relative viability (AZD5582 + Lapatinib; first compound 0.05 µM)	relative viability (AZD5582 + Olaparib; first compound 0.001581 µM)	relative viability (AZD5582 + Olaparib; first compound 0.005 µM)	relative viability (AZD5582 + Olaparib; first compound 0.01581 µM)	relative viability (AZD5582 + Olaparib; first compound 0.05 µM)	relative viability (AZD5582 + Bortezomib; first compound 0.001581 µM)	relative viability (AZD5582 + Bortezomib; first compound 0.005 µM)	relative viability (AZD5582 + Bortezomib; first compound 0.01581 µM)	relative viability (AZD5582 + Bortezomib; first compound 0.05 µM)	relative viability (AZD5582 + Tozasertib; first compound 0.001581 µM)	relative viability (AZD5582 + Tozasertib; first compound 0.005 µM)	relative viability (AZD5582 + Tozasertib; first compound 0.01581 µM)	relative viability (AZD5582 + Tozasertib; first compound 0.05 µM)	relative viability (AZD5582 + Linsitinib; first compound 0.001581 µM)	relative viability (AZD5582 + Linsitinib; first compound 0.005 µM)	relative viability (AZD5582 + Linsitinib; first compound 0.01581 µM)	relative viability (AZD5582 + Linsitinib; first compound 0.05 µM)
PC-3 [JPC-3]	0.423	0.411	0.448	0.26	0.914	0.855	1.09	0.536	0.8	0.788	0.793	0.38	0.775	0.909	0.804	0.42	0.933	0.944	1.04	0.691
NCI-H23	0.664	0.951	0.783	0.652	0.272	0.203	0.3	0.236	0.84	1.14	0.913	0.676	0.304	0.278	0.328	0.347	0.621	0.421	0.529	0.418
NCI-H596	0.851	0.829	0.959	0.326	0.566	–	0.802	0.252	1.35	1.2	1.13	0.549	–	–	0.943	0.338	1.28	0.503	1.08	0.246
LU99A	1.15	1.28	0.923	1.17	0.279	0.264	0.213	0.266	1.24	1.32	1.09	1.46	0.252	0.349	0.289	0.279	0.575	0.622	0.525	0.752
LCLC-97TM1	–	0.627	0.404	0.294	0.38	0.319	0.366	0.272	0.542	0.531	0.455	0.298	0.206	0.235	0.206	0.187	–	0.16	0.191	0.148
HCC-78	0.703	0.794	0.603	0.198	0.869	0.859	0.598	0.791	0.367	0.604	0.421	0.479	1.42	0.515	0.428	0.529	0.455	0.592	0.5	0.45
NCI-H838	0.823	0.964	0.746	0.979	0.744	0.811	0.711	0.743	0.809	1.21	0.382	0.486	0.265	0.307	–	0.292	0.973	0.968	0.842	1
HCC-15	0.644	0.734	0.521	0.655	0.615	0.624	0.622	0.598	0.921	1.01	0.864	0.975	0.375	0.42	0.473	0.459	0.832	0.779	0.91	0.721
EPLC-272H	0.313	0.16	0.573	0.11	–	–	0.955	0.0712	0.833	0.396	0.87	0.277	0.15	–	0.292	0.076	0.624	0.717	0.984	0.229
UMC-11	0.89	0.976	0.851	1.01	0.369	0.375	0.399	0.381	0.677	0.873	0.733	0.709	0.207	0.203	0.196	0.203	0.931	1.07	0.96	1.11
HARA	0.789	0.943	0.756	0.698	0.76	0.761	0.812	0.841	1.09	1.11	1.06	1.07	0.0907	0.117	0.13	0.0952	1.01	0.897	0.951	0.867
201T	1.03	1.16	1.05	1.2	0.916	0.904	0.778	0.989	1.1	1.16	1.07	1.17	1.01	1.07	0.961	1.13	1.03	1.18	0.995	1.27
H3255	0.249	0.284	0.208	0.216	0.489	0.598	0.553	0.481	0.823	0.879	0.385	0.552	0.553	0.609	0.676	0.509	0.81	0.975	0.839	0.893
NCI-H1437	0.616	0.759	0.687	0.72	0.711	0.649	0.648	0.623	0.389	0.549	0.445	0.446	0.373	0.385	0.399	0.358	0.862	0.95	0.976	1.01
